Measurements taken from the CheMixHub viscosity set.

Assay: xn = mol fraction of the nth substance listed

CCCCOCCOCCOCCCC + COC(=O)OC
viscosity [mPa·s], 101.3 kPa
Conditions	298.15 K	308.15 K	318.15 K
x1 = 0.0176	0.616	0.546	0.488
x1 = 0.0289	0.635	0.562	0.498
x1 = 0.0543	0.678	0.599	0.523
x1 = 0.0894	0.743	0.65	0.56
x1 = 0.1574	0.862	0.747	0.634
x1 = 0.2414	1.012	0.867	0.726
x1 = 0.3274	1.169	0.991	0.82
x1 = 0.3389	1.189	1.005	0.83
x1 = 0.44	1.367	1.131	0.947
x1 = 0.5417	1.518	1.266	1.043
x1 = 0.636	1.653	1.377	1.125
x1 = 0.7193	1.745	1.451	1.182
x1 = 0.8605	1.934	1.606	1.289
x1 = 0.9421	2.047	1.677	1.351

C=C1CCC2CC1C2(C)C (configuration not stated) + COC(C)(C)C
298.15 K, 101.33 kPa
Conditions	viscosity [mPa·s]
x2 = 0.0493	1.485
x2 = 0.1076	1.364
x2 = 0.2248	1.142
x2 = 0.354	0.93
x2 = 0.439	0.8092
x2 = 0.5239	0.7038
x2 = 0.6457	0.5826
x2 = 0.7594	0.4855
x2 = 0.8663	0.41
x2 = 0.9007	0.3873
x2 = 0.9651	0.3495

Fc1c(F)c(F)c(F)c(F)c1F + CS(C)=O
viscosity [mPa·s], 101 kPa
Conditions	x2 = 0.1003	x2 = 0.2029	x2 = 0.2999	x2 = 0.4	x2 = 0.5001	x2 = 0.5999	x2 = 0.7	x2 = 0.8004	x2 = 0.9
293.15 K	0.991	1.058	1.143	1.246	1.365	1.509	1.661	1.806	1.974
303.15 K	0.833	0.891	0.961	1.05	1.144	1.267	1.386	1.513	1.641
313.15 K	0.703	0.758	0.822	0.904	0.976	1.071	1.171	1.276	1.385
323.15 K	0.62	0.659	0.713	0.775	0.839	0.918	0.993	1.077	1.167

OC[C@H]1O[C@@](CO)(O[C@H]2O[C@H](CO)[C@@H](O)[C@H](O)[C@H]2O)[C@@H](O)[C@@H]1O + CS(C)=O
viscosity [mPa·s], 101 kPa
Conditions	298.15 K	308.15 K	318.15 K
x1 = 0.006451	2.4	1.962	1.63
x1 = 0.01289	2.883	2.319	1.908
x1 = 0.01959	3.523	2.793	2.266
x1 = 0.0336	5.532	4.214	3.309
x1 = 0.04801	9.087	6.615	4.999
x1 = 0.05582	12.08	8.541	6.292
x1 = 0.06395	16.4	11.28	8.055
x1 = 0.07246	22.45	14.86	10.39
x1 = 0.08036	30.82	19.69	13.36
x1 = 0.09752	61.59	36.46	23.02
x1 = 0.1069	90.84	51.59	31.4
x1 = 0.117	139.8	75.48	43.98
x1 = 0.1263	211.4	109.3	61.19

O=C(O)CC(O)C(=O)O (configuration not stated) + C[C@H](N)C(=O)O
101 kPa, x2 = 0.5
Conditions	viscosity [mPa·s]
298.15 K	475400
318.15 K	32390

O=C(O)CC(O)C(=O)O (configuration not stated) + C[N+](C)(C)CC(=O)[O-]
Conditions	viscosity [mPa·s]
318.15 K, 101 kPa, x2 = 0.5	42170

C[C@H](O)C(=O)O + C[N+](C)(C)CCO.[Cl-]
101 kPa, x2 = 0.3333
Conditions	viscosity [mPa·s]
303.15 K	374.3
313.15 K	187

O=C(O)CC(O)C(=O)O (configuration not stated) + C[N+](C)(C)CCO.[Cl-]
Conditions	viscosity [mPa·s]
293.15 K, 101 kPa, x1 = 0.5	24490
293.2 K, 101.3 kPa, x2 = 0.602	8896
293.2 K, 101.3 kPa, x2 = 0.666	3341
298 K, 101.3 kPa, x2 = 0.5	2082
298.15 K, 101 kPa, x1 = 0.5	22090
298.15 K, 101.33 kPa, x1 = 0.7	530.2
303.15 K, 101 kPa, x1 = 0.5	13390
303.2 K, 101.3 kPa, x2 = 0.602	5432
303.2 K, 101.3 kPa, x2 = 0.666	2810
308.15 K, 101 kPa, x1 = 0.5	8995
313.15 K, 101 kPa, x1 = 0.5	5859
313.2 K, 101.3 kPa, x2 = 0.505	6421
313.2 K, 101.3 kPa, x2 = 0.602	2827
313.2 K, 101.3 kPa, x2 = 0.666	1676
318.15 K, 101 kPa, x1 = 0.5	4121
323 K, 101.3 kPa, x2 = 0.5	610
323.15 K, 101 kPa, x1 = 0.5	2924

Oc1cccc(O)c1O + C[N+](C)(C)CCO.[Cl-]
viscosity [mPa·s], 101.3 kPa
Conditions	293.15 K	298.15 K	303.15 K	308.15 K	313.15 K	318.15 K	323.15 K
x2 = 0.333	6400	4850	3200	2000	1250	800	600
x2 = 0.5	6100	3750	2500	1500	1000	750	500

C=C1CCC2CC1C2(C)C (configuration not stated) + Cc1cc(C)cc(C)c1
viscosity [mPa·s], 101 kPa
Conditions	x2 = 0.2198	x2 = 0.3257	x2 = 0.429	x2 = 0.5299	x2 = 0.6283	x2 = 0.7245	x2 = 0.8185	x2 = 0.9103
303.15 K	1.254	1.108	0.981	0.871	0.799	0.743	0.696	0.661
308.5 K	1.167	1.032	0.915	0.819	0.749	0.695	0.653	0.622
313.15 K	1.082	0.959	0.854	0.768	0.698	0.645	0.606	0.576

C=C1CCC2CC1C2(C)C (configuration not stated) + Cc1cccc(C)c1
viscosity [mPa·s], 101 kPa
Conditions	x2 = 0.2415	x2 = 0.3531	x2 = 0.4592	x2 = 0.5602	x2 = 0.6564	x2 = 0.7482	x2 = 0.8359	x2 = 0.9198
303.15 K	1.225	1.049	0.915	0.799	0.737	0.682	0.637	0.602
308.5 K	1.137	0.98	0.85	0.748	0.685	0.639	0.6	0.568
313.15 K	1.05	0.91	0.787	0.697	0.637	0.593	0.563	0.542
